Columns and labels:
[1] = Irreversible inhibition of SARS-CoV-2 MPro using Boc-Abu-Tle-Leu-Gln-AMC as substrate preincubated for 5 mins followed by substrate addition and measured after 60 mins; set-up: species or system Severe acute respiratory syndrome coronavirus 2
Calu-3 = test: Cytotoxicity against human Calu-3 cells assessed as reduction in cell viability at 10 uM measured after 24 hrs by celltiter-glo assay; assay type: functional, cell-based
[2] = Inhibition of wild type SARS-CoV-2 MPro; set-up: species or system Severe acute respiratory syndrome coronavirus 2
[3] = Inhibition of SARS-CoV-2 MPro using Boc-Abu-Tle-Leu-Gln-AMC as substrate preincubated for 5 mins followed by substrate addition and measured after 60 mins; set-up: species or system Severe acute respiratory syndrome coronavirus 2
SARS-CoV-2 [4] = assay type: functional, organism-based; details: Severe acute respiratory syndrome coronavirus 2, B.1.513, Calu-3
[5] = Inhibition of recombinant SARS-CoV-1 Main protease using Ac-Abu-Tle-Leu-Gln-ACC as substrate incubated for 15 mins by fluorescence based microplate reader analysis; set-up: species or system Severe acute respiratory syndrome-related coronavirus
[6] = Inhibition of MERS-CoV Main protease using Ac-Abu-Tle-Leu-Gln-ACC as substrate incubated for 15 mins by fluorescence based microplate reader analysis; set-up: species or system Middle East respiratory syndrome-related coronavirus
[7] = test system: Middle East respiratory syndrome-related coronavirus; test: Inhibition of MERS-CoV Main protease using Ac-Abu-Tle-Leu-Gln-ACC as substrate at 10 uM incubated for 15 mins by fluorescence based microplate reader analysis relative to control
[8] = Inhibition of SARS-CoV-2 MPro; set-up: species or system Severe acute respiratory syndrome coronavirus 2
SARS-CoV-2 [9] = test: microbe, parasite or virus in culture; details: Severe acute respiratory syndrome coronavirus 2
[10] = Reversible inhibition of SARS-CoV-2 MPro using Boc-Abu-Tle-Leu-Gln-AMC as substrate preincubated for 5 mins followed by substrate addition and measured after 60 mins; set-up: species or system Severe acute respiratory syndrome coronavirus 2
[11] = Metabolic stability in mouse liver microsome assessed as half life; assay type: ADME; details: liver microsomes
[12] = Metabolic stability in mouse liver microsome assessed as intrinsic clearance; assay type: ADME; details: liver microsomes, read-out: CLH
[13] = Metabolic stability in human liver microsome assessed as half life; assay type: ADME; details: liver microsomes
[14] = Metabolic stability in human liver microsome assessed as intrinsic clearance; assay type: ADME; details: liver microsomes, read-out: CLH
[15] = Stability in mouse plasma assessed as half life; assay type: ADME, cell-free
[16] = Stability in human plasma assessed as half life; assay type: ADME, cell-free
[17] = Plasma protein binding in mouse; assay type: ADME, cell-free; details: read-out: PPB (converted)
[18] = test system: Severe acute respiratory syndrome coronavirus 2; test: Inhibition of SARS-CoV-2 MPro using Boc-Abu-Tle-Leu-Gln-AMC as substrate assessed as Kinact/Ki ratio preincubated for 5 mins followed by substrate addition and measured after 60 mins; details: time 65.0 min

| Structure (SMILES) | Activity (Calu-3) | IC50 [3] [nM] | EC50 (SARS-CoV-2 [4]) [nM] | IC50 [5] [nM] | IC50 [6] [nM] | Ratio [18] [M⁻¹ s⁻¹] | also measured |
| --- | --- | --- | --- | --- | --- | --- | --- |
| C=CC(=O)[C@H](Cc1cccc(Cl)c1)NC(=O)[C@H](CC(C)C)NC(=O)CSc1ccccc1 | Not toxic |  |  |  |  |  | IC50 [1]: 17 nM; IC50 [2]: 11.7 nM |
| C=CC(=O)[C@H](Cc1ccccc1)NC(=O)[C@H](CC(C)C)NC(=O)/C=C/c1ccc(OC(F)(F)F)cc1 | Not toxic | 481 | 34.4 | 72 | > 10000 |  | inhibition [7]: 32% |
| CCOc1ccc(C(=O)Oc2cncc(Cl)c2)c(F)c1 |  |  |  |  |  |  | IC50 [8]: 47 nM; EC50 (SARS-CoV-2 [9]): 27 nM |
| C=CC(=O)[C@H](Cc1ccccc1)NC(=O)[C@H](CC(C)C)NC(=O)c1cc2ccccc2n1C | Not toxic |  | 395 |  |  |  | IC50 [10]: 96 nM |
| CC(C)(C)[C@H](NC(=O)C(F)(F)F)C(=O)N1CC2(C[C@H]1C(=O)N[C@H](C#N)C[C@@H]1CCNC1=O)SCCS2 |  |  |  |  |  |  | EC50 (SARS-CoV-2 [9]): 30 nM |
| C=CC(=O)[C@H](Cc1ccccc1)NC(=O)[C@H](CC(C)C)NC(=O)CSc1ccccc1 | Not toxic |  | 10.6 | 1 | 111 |  | IC50 [10]: 19 nM; half-life [11]: > 1 h; microsomal CLint [12]: < 23 µL/min/mg; half-life [13]: > 1 h; microsomal CLint [14]: < 23 µL/min/mg; half-life [15]: > 4 h; half-life [16]: 2.38 h; fraction unbound [17]: 0.003 |
| C=CC(=O)[C@H](Cc1ccccc1)NC(=O)[C@H](CC(C)C)NC(=O)C(C)(C)Sc1ccccc1 | Not toxic | 71 | 86.2 |  |  |  | IC50 [10]: 71 nM |
| C=CC(=O)[C@H](Cc1ccccc1)NC(=O)[C@H](CC(C)C)NC(=O)/C=C/c1ccc(N(C)C)cc1 | Not toxic | 279 | 320 | 57 | > 10000 |  | inhibition [7]: 40% |
| C=CC(=O)[C@H](Cc1ccccc1)NC(=O)[C@H](CC(C)C)NC(=O)COc1cccc(OC)c1 | Not toxic | 89 | 557 | 57 | 565 |  |  |
| C=CC(=O)[C@H](Cc1ccccc1)NC(=O)[C@H](CC(C)C)NC(=O)/C=C/c1ccc(Cl)cc1 | Not toxic | 63 | 230 |  |  |  |  |
| C=CC(=O)[C@H](Cc1ccccc1)NC(=O)[C@H](CC(C)C)NC(=O)CCc1ccc(OC(F)(F)F)cc1 |  | 184 |  |  |  | 14000 |  |
| C=CC(=O)[C@H](Cc1ccccc1)NC(=O)[C@H](CC(C)C)NC(=O)/C=C/c1cc(OC)cc(OC)c1 |  | 725 |  | 23 | > 10000 | 9130 | inhibition [7]: 48% |
| C=CC(=O)[C@H](Cc1c[nH]c2ccccc12)NC(=O)[C@H](CC(C)C)NC(=O)COc1ccc(Cl)cc1Cl |  | 316 |  | 58 | 1080 |  |  |
| C=CC(=O)[C@H](Cc1ccccc1)NC(=O)[C@H](CC(C)C)NC(=O)COc1cccc(N(C)C)c1 | Not toxic | 131 |  |  |  | 22600 |  |
| C=CC(=O)[C@H](Cc1ccccc1)NC(=O)[C@H](CC(C)C)NC(=O)CCc1ccc(N(C)C)cc1 |  | 152 |  |  |  | 14700 |  |
| C=CC(=O)[C@H](Cc1ccccc1)NC(=O)[C@H](CC(C)C)NC(=O)c1cc(C)on1 |  | 449 |  |  |  | 21300 |  |
| C=CC(=O)[C@H](Cc1ccccc1)NC(=O)[C@H](CC(C)C)NC(=O)c1cc2ccccc2s1 |  | 221 |  |  |  | 21700 |  |
| C=CC(=O)[C@H](Cc1ccccc1F)NC(=O)[C@H](CC(C)C)NC(=O)COc1ccc(Cl)cc1Cl |  | 159 |  |  |  | 13300 |  |
| C=CC(=O)[C@H](Cc1ccccc1)NC(=O)[C@H](CC(C)C)NC(=O)c1csc(-c2ccccc2)n1 |  | 151 |  |  |  | 32500 |  |
| C=CC(=O)[C@H](Cc1ccccc1)NC(=O)[C@H](CC(C)C)NC(=O)/C=C/c1ccccc1 |  | 131 |  | 110 |  | 9630 |  |
| C=CC(=O)[C@H](Cc1ccccc1)NC(=O)[C@H](CC(C)C)NC(=O)COc1ccc(Cl)cc1 | Not toxic | 97 | 181 | 203 | 1420 |  |  |
| C=CC(=O)[C@H](Cc1ccccc1)NC(=O)[C@H](CC(C)C)NC(=O)c1ccc(-c2ccccc2)o1 |  | 363 |  | 22 | 538 | 16400 |  |
| C=CC(=O)[C@H](Cc1ccccc1)NC(=O)[C@H](CC(C)C)NC(=O)c1cc(C(C)(C)C)nn1C |  | 599 |  |  |  | 5400 |  |
| O=C(NC1CCCC1)C(=O)[C@H](C[C@@H]1CCNC1=O)NC(=O)[C@@H]1[C@H]2CCC[C@H]2CN1C(=O)[C@@H](NC(=O)C(F)(F)F)C1CCCCC1 |  |  |  |  |  |  | EC50 (SARS-CoV-2 [9]): 90 nM |

Reference: ChEMBL document CHEMBL6153062, “Design, Synthesis, and Unprecedented Interactions of Covalent Dipeptide-Based Inhibitors of SARS-CoV-2 Main Protease and Its Variants Displaying Potent Antiviral Activity” (J Med Chem, 2025)
